From PubChem BioAssay (NCI)
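Assay format: 96-well plates, 48-hour exposure. The concentration for full growth arrest is given as TGI.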

Key:
Experiment in all cases: inhibition of tumour cell growth, NCI panel, 48 h
[1] = tested on: 786-0 renal
[2] = tested on: A498 renal
[3] = tested on: A549 NSCLC
[4] = tested on: ACHN renal
[5] = tested on: CAKI-1 renal
[6] = tested on: CCRF-CEM leukemia
[7] = tested on: COLO 205 colon
[8] = tested on: DU-145 prostate
[9] = tested on: EKVX NSCLC
[10] = tested on: HCC-2998 colon
[11] = tested on: HCT-116 colon
[12] = tested on: HCT-15 colon
[13] = tested on: HL-60(TB) leukemia
[14] = tested on: HOP-62 NSCLC
[15] = tested on: HOP-92 NSCLC
[16] = tested on: HS 578T breast
[17] = tested on: HT29 colon
[18] = tested on: K-562 leukemia
[19] = tested on: KM12 colon
[20] = tested on: LOX IMVI melanoma
[21] = tested on: M14 melanoma
[22] = tested on: MALME-3M melanoma
[23] = tested on: MCF7 breast
[24] = tested on: MDA-MB-231 breast
[25] = tested on: MDA-MB-435
[26] = tested on: MOLT-4 leukemia
[27] = tested on: NCI-H226 lung
[28] = tested on: NCI-H23 lung
[29] = tested on: NCI-H460 lung
[30] = tested on: NCI/ADR-RES ovarian
[31] = tested on: OVCAR-3 ovarian
[32] = tested on: OVCAR-4 ovarian
[33] = tested on: OVCAR-5 ovarian
[34] = tested on: OVCAR-8 ovarian
[35] = tested on: PC-3 prostate
[36] = tested on: RPMI-8226 leukemia
[37] = tested on: RXF 393 renal
[38] = tested on: SF-268 CNS
[39] = tested on: SF-295 CNS
[40] = tested on: SF-539 CNS
[41] = tested on: SK-MEL-2 melanoma
[42] = tested on: SK-MEL-5 melanoma
[43] = tested on: SK-OV-3 ovarian
[44] = tested on: SNB-19 CNS
[45] = tested on: SNB-75 CNS
[46] = tested on: SR leukemia
[47] = tested on: SW-620 colon
[48] = tested on: TK-10 renal
[49] = tested on: U251 CNS
[50] = tested on: UACC-62 melanoma
[51] = tested on: UO-31 renal
[52] = tested on: IGROV1 ovarian
[53] = tested on: NCI-H522 lung
[54] = tested on: SK-MEL-28 melanoma
[55] = tested on: SN12C renal
[56] = tested on: T-47D breast
[57] = tested on: UACC-257 melanoma

Cc1ccc(S(=O)(=O)NC(=O)Nc2ccc(C(=O)O)c(O)c2)cc1
TGI [1]: > 100 µM | TGI [2]: > 100 µM | TGI [3]: > 100 µM | TGI [4]: > 100 µM | TGI [5]: > 100 µM | TGI [6]: > 100 µM | TGI [7]: > 100 µM | TGI [8]: > 100 µM | TGI [9]: > 100 µM | TGI [10]: > 100 µM | TGI [11]: > 100 µM | TGI [12]: > 100 µM | TGI [13]: > 100 µM | TGI [14]: > 100 µM | TGI [15]: > 100 µM | TGI [16]: > 100 µM | TGI [17]: > 100 µM | TGI [18]: > 100 µM | TGI [19]: > 100 µM | TGI [20]: > 100 µM | TGI [21]: > 100 µM | TGI [22]: > 100 µM | TGI [23]: > 100 µM | TGI [24]: > 100 µM | TGI [25]: > 100 µM | TGI [26]: > 100 µM | TGI [27]: > 100 µM | TGI [28]: > 100 µM | TGI [29]: > 100 µM | TGI [30]: > 100 µM | TGI [31]: > 100 µM | TGI [32]: > 100 µM | TGI [33]: > 100 µM | TGI [34]: > 100 µM | TGI [35]: > 100 µM | TGI [36]: > 100 µM | TGI [37]: > 100 µM | TGI [38]: > 100 µM | TGI [39]: > 100 µM | TGI [40]: > 100 µM | TGI [41]: > 100 µM | TGI [42]: > 100 µM | TGI [43]: > 100 µM | TGI [44]: > 100 µM | TGI [45]: > 100 µM | TGI [46]: > 100 µM | TGI [47]: > 100 µM | TGI [48]: > 100 µM | TGI [49]: > 100 µM | TGI [50]: > 100 µM | TGI [51]: > 100 µM

O=C(N=C1N(c2ccccc2)C(=O)C(=O)N1c1ccccc1)c1ccccc1
TGI [1]: 12.5 µM | TGI [2]: 39.9 µM | TGI [3]: 20.2 µM | TGI [4]: 14.3 µM | TGI [5]: 31.4 µM | TGI [6]: > 100 µM | TGI [7]: 30 µM | TGI [8]: 43.5 µM | TGI [9]: 32.1 µM | TGI [10]: 23.3 µM | TGI [11]: 14.4 µM | TGI [12]: 22.4 µM | TGI [13]: > 100 µM | TGI [14]: 23.7 µM | TGI [15]: 20.8 µM | TGI [16]: 27.2 µM | TGI [17]: 40.9 µM | TGI [52]: 23.5 µM | TGI [18]: > 100 µM | TGI [19]: 46.9 µM | TGI [20]: 13.6 µM | TGI [22]: 38.4 µM | TGI [24]: 18.6 µM | TGI [25]: 99.2 µM | TGI [26]: > 100 µM | TGI [27]: 29.2 µM | TGI [28]: 33.6 µM | TGI [29]: 25.8 µM | TGI [53]: 6.23 µM | TGI [30]: 25.8 µM | TGI [32]: 13.3 µM | TGI [33]: > 100 µM | TGI [34]: 29.6 µM | TGI [35]: 50.6 µM | TGI [36]: 74.9 µM | TGI [37]: 13.5 µM | TGI [38]: 50.5 µM | TGI [39]: 25.3 µM | TGI [40]: 26.6 µM | TGI [41]: 36.9 µM | TGI [54]: 38.1 µM | TGI [42]: 32 µM | TGI [43]: 19.6 µM | TGI [55]: 24.1 µM | TGI [44]: 28.1 µM | TGI [45]: 25.1 µM | TGI [46]: 41.4 µM | TGI [47]: 28.4 µM | TGI [56]: 56.5 µM | TGI [48]: 33.2 µM | TGI [49]: 24.4 µM | TGI [57]: > 100 µM | TGI [50]: 30.2 µM | TGI [51]: 29 µM
